Data reported in PMC9393165 (Scientific Reports, 2022).
Marks after values point to notes of the source that are not given here.

Assay: Proportions of kidney transplant recipients with subtherapeutic or supratherapeutic tacrolimus trough concentration
Type: in vivo, human
Protocol: All participants received oral, immediate-release tacrolimus (Prograf®; Astellas, Kerry, Ireland). According to Siriraj Hospital protocol, the initial dose (0.05 mg/kg every 12 h) of tacrolimus was started 2 days before KT (day − 2) and subsequently adjusted after KT based on efficacy and toxicity and to maintain morning trough concentrations of 7 to 10 ng/mL in standard risk patients and 10 to 12 ng/mL in high-risk patients during the first week after transplantation. Participants also received either mycophenolate mofetil (Cellcept®; F Hoffmann-La Roche Ltd, Basel, Switzerland or Immucept®; Intas Pharmaceuticals Ltd., Gujarat, India) or mycophenolate sodium (Myfortic®; Novartis Pharma Stein, Switzerland for Novartis AG, Basel, Switzerland) at the dosage equivalent to 2 g/day of mycophenolate mofetil. A tapered corticosteroid regimen was administered consisting of an intravenous bolus of 500 mg of methylprednisolone (Solu-medrol®; Novartis Pharma Stein, Switzerland for Novartis AG, Basel, Switzerland) on day 0, 250 mg on day 1, 125 mg on day 2 followed by 40 mg/day of prednisolone on day 4 after KT. The subsequent prednisolone doses were gradually tapered thereafter. Induction therapy with basiliximab (Simulect®; Novartis Pharma AG, Basel, Switzerland) was allowed.
On day 7 post-KT, after the tacrolimus dosage was stable for at least 48 h, venous blood samples (5 mL) were collected at pre-dose and 1, 2, 4, 6, 8 and 12 h after the morning dose of tacrolimus. Samples were collected in EDTA tubes and stored at 4 degrees Celsius until analysis. Whole blood tacrolimus concentrations were determined within the same day of blood collection by using a chemiluminescent microparticle immunoassay method with […] system® i2000 (Abbott, Abbott Diagnostic, USA). The method was linear in the concentration range up to 30 ng/mL, the limits of quantification were 0.8 ng/mL, and the coefficient of variation of within run precision and between run precision were less than 10%. Mean recovery was 100 ± 10% according to the manufacturer’s information.
The primary outcome measure was AUC/D at day 7 post-KT. […]

[1] = day 1 post-transplantation, CYP3A5 expressers, diltiazem (n = 11)
[2] = day 1 post-transplantation, CYP3A5 expressers, placebo (n = 12)
[3] = day 1 post-transplantation, CYP3A5 non-expressers, diltiazem (n = 9)
[4] = day 1 post-transplantation, CYP3A5 non-expressers, placebo (n = 8)
[5] = day 1 post-transplantation, total (n = 40)
[6] = day 3 post-transplantation, CYP3A5 expressers, diltiazem (n = 11)
[7] = day 3 post-transplantation, CYP3A5 expressers, placebo (n = 12)
[8] = day 3 post-transplantation, CYP3A5 non-expressers, diltiazem (n = 9)
[9] = day 3 post-transplantation, CYP3A5 non-expressers, placebo (n = 8)
[10] = day 3 post-transplantation, total (n = 40)
[11] = day 5 post-transplantation, CYP3A5 expressers, diltiazem (n = 11)
[12] = day 5 post-transplantation, CYP3A5 expressers, placebo (n = 12)
[13] = day 5 post-transplantation, CYP3A5 non-expressers, diltiazem (n = 9)
[14] = day 5 post-transplantation, CYP3A5 non-expressers, placebo (n = 8)
[15] = day 5 post-transplantation, total (n = 40)
[16] = day 7 post-transplantation, CYP3A5 expressers, diltiazem (n = 11)
[17] = day 7 post-transplantation, CYP3A5 expressers, placebo (n = 12)
[18] = day 7 post-transplantation, CYP3A5 non-expressers, diltiazem (n = 9)
[19] = day 7 post-transplantation, CYP3A5 non-expressers, placebo (n = 8)
[20] = day 7 post-transplantation, total (n = 40)

C=CC[C@@H]1/C=C(\C)C[C@H](C)C[C@H](OC)[C@H]2O[C@@](O)(C(=O)C(=O)N3CCCC[C@H]3C(=O)O[C@H](/C(C)=C/[C@@H]3CC[C@@H](O)[C@H](OC)C3)[C@H](C)[C@@H](O)CC1=O)[C@H](C)C[C@@H]2OC [Tacrolimus]
Trough concentration higher than 15 ng/mL [1]: 1 (9.1) n (%)
Trough concentration lower than 5 ng/mL [1]: 0 (0) n (%)
Trough concentration lower than the target range [1]: 1 (9.1) n (%)
Trough concentration higher than 15 ng/mL [2]: 0 (0) n (%)
Trough concentration lower than 5 ng/mL [2]: 4 (33.3) n (%)
Trough concentration lower than the target range [2]: 7 (58.3) n (%)
Trough concentration higher than 15 ng/mL [3]: 3 (33.3) n (%)
Trough concentration lower than 5 ng/mL [3]: 1 (11.1) n (%)
Trough concentration lower than the target range [3]: 2 (22.2) n (%)
Trough concentration higher than 15 ng/mL [4]: 3 (37.5) n (%)
Trough concentration lower than 5 ng/mL [4]: 1 (12.5) n (%)
Trough concentration lower than the target range [4]: 2 (25.0) n (%)
Trough concentration higher than 15 ng/mL [5]: 7 (17.5) n (%)
Trough concentration lower than 5 ng/mL [5]: 6 (15.0) n (%)
Trough concentration lower than the target range [5]: 12 (30.0) n (%)
Trough concentration lower than 5 ng/mL (day 3 post-transplantation, CYP3A5 expressers, diltiazem (EXdtz, n = 11)): 1 (9.1) n (%)
Trough concentration lower than 5 ng/mL (day 3 post-transplantation, CYP3A5 expressers, diltiazem (EXdtz, n = 11), listed as tacrolimus): one
Trough concentration higher than 15 ng/mL [6]: 0 (0) n (%)
Trough concentration lower than the target range [6]: 2 (18.2)^b n (%)
Trough concentration lower than 5 ng/mL (day 3 post-transplantation, CYP3A5 expressers, placebo (EXplb, n = 12)): 4 (33.3) n (%)
Trough concentration lower than 5 ng/mL (day 3 post-transplantation, CYP3A5 expressers, placebo (EXplb, n = 12), listed as tacrolimus): four
Trough concentration higher than 15 ng/mL [7]: 0 (0) n (%)
Trough concentration lower than the target range [7]: 8 (66.7) n (%)
Trough concentration lower than 5 ng/mL (day 3 post-transplantation, CYP3A5 non-expressers, diltiazem (NEdtz, n = 9)): 0 (0) n (%)
Trough concentration lower than 5 ng/mL (day 3 post-transplantation, CYP3A5 non-expressers, diltiazem (NEdtz, n = 9), listed as tacrolimus): none
Trough concentration higher than 15 ng/mL [8]: 0 (0) n (%)
Trough concentration lower than the target range [8]: 0 (0)^b n (%)
Trough concentration lower than 5 ng/mL (day 3 post-transplantation, CYP3A5 non-expressers, placebo (NEplb, n = 8)): 0 (0) n (%)
Trough concentration lower than 5 ng/mL (day 3 post-transplantation, CYP3A5 non-expressers, placebo (NEplb, n = 8), listed as tacrolimus): none
Trough concentration higher than 15 ng/mL [9]: 1 (12.5) n (%)
Trough concentration lower than the target range [9]: 0 (0)^b n (%)
Trough concentration higher than 15 ng/mL [10]: 1 (2.5) n (%)
Trough concentration lower than 5 ng/mL [10]: 5 (12.5) n (%)
Trough concentration lower than the target range [10]: 10 (25.0) n (%)
Trough concentration higher than 15 ng/mL [11]: 0 (0) n (%)
Trough concentration lower than 5 ng/mL [11]: 1 (9.1) n (%)
Trough concentration lower than the target range [11]: 7 (63.6) n (%)
Trough concentration higher than 15 ng/mL [12]: 0 (0) n (%)
Trough concentration lower than 5 ng/mL [12]: 1 (8.3) n (%)
Trough concentration lower than the target range [12]: 7 (58.3) n (%)
Trough concentration higher than 15 ng/mL [13]: 0 (0) n (%)
Trough concentration lower than 5 ng/mL [13]: 0 (0) n (%)
Trough concentration lower than the target range [13]: 2 (22.2) n (%)
Trough concentration higher than 15 ng/mL [14]: 0 (0) n (%)
Trough concentration lower than 5 ng/mL [14]: 2 (25.0) n (%)
Trough concentration lower than the target range [14]: 2 (25.0) n (%)
Trough concentration higher than 15 ng/mL [15]: 0 (0) n (%)
Trough concentration lower than 5 ng/mL [15]: 4 (10.0) n (%)
Trough concentration lower than the target range [15]: 18 (45.0) n (%)
Trough concentration higher than 15 ng/mL [16]: 0 (0) n (%)
Trough concentration lower than 5 ng/mL [16]: 0 (0) n (%)
Trough concentration lower than the target range [16]: 6 (54.5) n (%)
Trough concentration higher than 15 ng/mL [17]: 0 (0) n (%)
Trough concentration lower than 5 ng/mL [17]: 0 (0) n (%)
Trough concentration lower than the target range [17]: 1 (8.3) n (%)
Trough concentration higher than 15 ng/mL [18]: 0 (0) n (%)
Trough concentration lower than 5 ng/mL [18]: 0 (0) n (%)
Trough concentration lower than the target range [18]: 3 (33.3) n (%)
Trough concentration higher than 15 ng/mL [19]: 0 (0) n (%)
Trough concentration lower than 5 ng/mL [19]: 0 (0) n (%)
Trough concentration lower than the target range [19]: 2 (25.0) n (%)
Trough concentration higher than 15 ng/mL [20]: 0 (0) n (%)
Trough concentration lower than 5 ng/mL [20]: 0 (0) n (%)
Trough concentration lower than the target range [20]: 12 (30.0) n (%)
